Data as given in PubChem BioAssay AID256 (DTP/NCI, 2004).
“And” between values parts separate entries of the source, which are not always exact repeats. Identical values can stand only once. Toxic doses and inconclusive results are not listed.

System: CD2F1 mice, L1210 leukemia ip, survival T/C
Experiment: NCI In Vivo Anticancer Drug Screen. Data for tumor model L1210 Leukemia (intraperitoneal) in CD2F1 (CDF1) mice
Conditions: higher = longer survival
In short: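 Transplantable tumor in mice; compound-treated vs vehicle-treated groups. Read-out = treated/control ratio of the measured endpoint.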

[1] = endpoint: mean survival time, dose: 100.0 mg/kg/injection, schedule: Q01DX009 (ip), vehicle: saline with Tween-80
[2] = endpoint: mean survival time, dose: 100.0 mg/kg/injection, schedule: Q04DX003 (ip), vehicle: saline with Tween-80
[3] = endpoint: mean survival time, dose: 200.0 mg/kg/injection, schedule: Q01DX009 (ip), vehicle: saline with Tween-80
[4] = endpoint: mean survival time, dose: 200.0 mg/kg/injection, schedule: Q04DX003 (ip), vehicle: saline with Tween-80
[5] = endpoint: mean survival time, dose: 400.0 mg/kg/injection, schedule: Q04DX003 (ip), vehicle: saline with Tween-80
[6] = endpoint: mean survival time, dose: 100.0 mg/kg/injection, schedule: Q01DX009 (ip), vehicle: other
[7] = endpoint: mean survival time, dose: 200.0 mg/kg/injection, schedule: Q01DX009 (ip), vehicle: other
[8] = endpoint: mean survival time, dose: 400.0 mg/kg/injection, schedule: Q01DX009 (ip), vehicle: other

For `CCN(CC)c1nc(CCc2ccc(N(C)C)cc2)c2[nH]cnc2n1`, the T/C (endpoint: mean survival time, dose: 3.13 mg/kg/injection, schedule: Q01DX005 (ip), vehicle: other) was 94 % of control, the T/C (endpoint: mean survival time, dose: 6.25 mg/kg/injection, schedule: Q01DX005 (ip), vehicle: other) was 93 % of control and the T/C (endpoint: mean survival time, dose: 12.5 mg/kg/injection, schedule: Q01DX005 (ip), vehicle: other) was 93 % of control. For the same compound, the T/C (endpoint: mean survival time, dose: 25.0 mg/kg/injection, schedule: Q01DX005 (ip), vehicle: other) was 89 % of control and the T/C (endpoint: mean survival time, dose: 50.0 mg/kg/injection, schedule: Q01DX005 (ip), vehicle: other) was 89 % of control.
In the case of `CN(CCC#N)C(=O)Nc1ccccc1`, the T/C (endpoint: mean survival time, dose: 100.0 mg/kg/injection, schedule: Q04DX003 (ip), vehicle: saline + alcohol) is reported as 93 % of control, the T/C (endpoint: mean survival time, dose: 200.0 mg/kg/injection, schedule: Q04DX003 (ip), vehicle: saline + alcohol) is reported as 98 % of control and the T/C (endpoint: mean survival time, dose: 400.0 mg/kg/injection, schedule: Q04DX003 (ip), vehicle: saline + alcohol) is reported as 95 % of control.
For `Cc1ccc(Cl)cc1NC(=O)OCC(C)C`, the T/C (endpoint: mean survival time, dose: 100.0 mg/kg/injection, schedule: Q04DX002 (ip), vehicle: saline with Tween-80) was 90 % of control, the T/C (endpoint: mean survival time, dose: 200.0 mg/kg/injection, schedule: Q04DX002 (ip), vehicle: saline with Tween-80) was 93 % of control and the T/C (endpoint: mean survival time, dose: 400.0 mg/kg/injection, schedule: Q04DX002 (ip), vehicle: saline with Tween-80) was 90 % of control.
In the case of `Cc1cc(Cl)ccc1OCC(=O)Nc1nc(N)nc(N)n1`, the T/C [1] is reported as 105 % of control, the T/C [2] is reported as 89 % of control and the T/C [3] is reported as 102 % of control. The T/C [4] was 90 % of control, the T/C (endpoint: mean survival time, dose: 400.0 mg/kg/injection, schedule: Q01DX009 (ip), vehicle: saline with Tween-80) was 100 % of control and the T/C [5] was 101 % of control.
In the case of `CC1/C(=N\Nc2ccc([N+](=O)[O-])cc2[N+](=O)[O-])CCC2C1(C)CCC1C2(C)CCC2(C)C3CC(C)(C)CCC3(C)CCC12C` (stereo unspecified), the T/C (endpoint: mean survival time, dose: 100.0 mg/kg/injection, schedule: Q01DX001 (ip), vehicle: saline) is reported as 97 % of control, the T/C (endpoint: mean survival time, dose: 200.0 mg/kg/injection, schedule: Q01DX001 (ip), vehicle: saline) is reported as 97 % of control and the T/C (endpoint: mean survival time, dose: 400.0 mg/kg/injection, schedule: Q01DX001 (ip), vehicle: saline) is reported as 97 % of control.
`N#Cc1cnn2ccn(C3OC(CO)C(O)C3O)c12` (stereo unspecified) was tested, and the T/C (endpoint: median survival time, dose: 9.38 mg/kg/injection, schedule: Q01DX005 (ip), vehicle: water) was 97 % of control, the T/C (endpoint: median survival time, dose: 18.75 mg/kg/injection, schedule: Q01DX005 (ip), vehicle: water) was 100 % of control and the T/C (endpoint: median survival time, dose: 37.5 mg/kg/injection, schedule: Q01DX005 (ip), vehicle: water) was 98 % of control. For the same compound, the T/C (endpoint: median survival time, dose: 75.0 mg/kg/injection, schedule: Q01DX005 (ip), vehicle: water) was 98 % of control and the T/C (endpoint: median survival time, dose: 150.0 mg/kg/injection, schedule: Q01DX005 (ip), vehicle: water) was 97 % of control.
For `ClC1=NC(Cl)(Cl)C(Cl)=C1Cl`, the T/C (endpoint: mean survival time, dose: 6.25 mg/kg/injection, schedule: Q04DX002 (ip), vehicle: saline) was 95 % of control, the T/C (endpoint: mean survival time, dose: 12.5 mg/kg/injection, schedule: Q04DX002 (ip), vehicle: saline) was 95 % of control and the T/C (endpoint: mean survival time, dose: 25.0 mg/kg/injection, schedule: Q04DX002 (ip), vehicle: saline) was 98 % of control.
`COc1c(OC(C)=O)ccc2c1C=CCCC2=O` was tested, and the T/C (endpoint: mean survival time, dose: 50.0 mg/kg/injection, schedule: Q01DX009 (ip), vehicle: saline with Tween-80) was 96 % of control, the T/C [1] was 100 % of control and the T/C [3] was 92 % of control.
In the case of `OCCCl`, the T/C (endpoint: mean survival time, dose: 75.0 mg/kg/injection, schedule: Q01DX001 (ip), vehicle: saline) is reported as 104 % of control and the T/C (endpoint: mean survival time, dose: 150.0 mg/kg/injection, schedule: Q01DX001 (ip), vehicle: saline) is reported as 103 % of control.
In the case of `CCCCC(=O)/C=C/Sc1n[nH]c(=O)[nH]c1=O`, the T/C (endpoint: mean survival time, dose: 12.5 mg/kg/injection, schedule: Q01DX005 (ip), vehicle: distilled water + Tween-80) is reported as 104 % of control, the T/C (endpoint: mean survival time, dose: 25.0 mg/kg/injection, schedule: Q01DX005 (ip), vehicle: distilled water + Tween-80) is reported as 93 % of control and the T/C (endpoint: mean survival time, dose: 50.0 mg/kg/injection, schedule: Q01DX005 (ip), vehicle: distilled water + Tween-80) is reported as 90 % of control.
With `Cc1cc(C)cc(NCCC#N)c1` the T/C [6] was 98 % of control, the T/C (endpoint: mean survival time, dose: 100.0 mg/kg/injection, schedule: Q04DX003 (ip), vehicle: other) was 106 % of control and the T/C [7] was 98 % of control. The T/C (endpoint: mean survival time, dose: 200.0 mg/kg/injection, schedule: Q04DX003 (ip), vehicle: other) was 100 % of control, the T/C [8] was 98 % of control and the T/C (endpoint: mean survival time, dose: 400.0 mg/kg/injection, schedule: Q04DX003 (ip), vehicle: other) was 98 % of control.
In the case of `CC(O)(c1ccc(Cl)cc1)c1ccc(Cl)cc1`, the T/C [2] is reported as 106 % of control, the T/C [4] is reported as 101 % of control and the T/C [5] is reported as 90 % of control.
In the case of `COc1cccnc1/C=N/NC(N)=S`, the T/C (endpoint: mean survival time, dose: 3.13 mg/kg/injection, schedule: Q01DX009 (ip), vehicle: saline with Tween-80) is reported as 118 % of control, the T/C (endpoint: mean survival time, dose: 5.54 mg/kg/injection, schedule: Q01DX001 (ip), vehicle: saline with Tween-80) is reported as 103 % of control and the T/C (endpoint: mean survival time, dose: 5.54 mg/kg/injection, schedule: Q01DX009 (ip), vehicle: saline with Tween-80) is reported as 200 % of control. The T/C (endpoint: mean survival time, dose: 5.54 mg/kg/injection, schedule: Q04DX001 (ip), vehicle: saline with Tween-80) was 102 % of control, the T/C (endpoint: mean survival time, dose: 6.25 mg/kg/injection, schedule: Q04DX002 (ip), vehicle: saline with Tween-80) was 104 % of control and the T/C (endpoint: mean survival time, dose: 8.32 mg/kg/injection, schedule: Q01DX001 (ip), vehicle: saline with Tween-80) was 105 % of control. For the same compound, the T/C (endpoint: mean survival time, dose: 8.32 mg/kg/injection, schedule: Q01DX009 (ip), vehicle: saline with Tween-80) was 162 % of control, the T/C (endpoint: mean survival time, dose: 8.32 mg/kg/injection, schedule: Q04DX001 (ip), vehicle: saline with Tween-80) was 105 % of control and the T/C (endpoint: mean survival time, dose: 12.5 mg/kg/injection, schedule: Q01DX001 (ip), vehicle: saline with Tween-80) was 109 % of control. For the same compound, the T/C (endpoint: mean survival time, dose: 12.5 mg/kg/injection, schedule: Q01DX009 (ip), vehicle: saline with Tween-80) was 152 % of control, the T/C (endpoint: mean survival time, dose: 12.5 mg/kg/injection, schedule: Q04DX001 (ip), vehicle: saline with Tween-80) was 111 % of control and the T/C (endpoint: mean survival time, dose: 12.5 mg/kg/injection, schedule: Q04DX002 (ip), vehicle: saline with Tween-80) was 104 % of control. For the same compound, the T/C (endpoint: mean survival time, dose: 18.8 mg/kg/injection, schedule: Q01DX001 (ip), vehicle: saline with Tween-80) was 109 % of control and the T/C (endpoint: mean survival time, dose: 18.8 mg/kg/injection, schedule: Q04DX001 (ip), vehicle: saline with Tween-80) was 105 % of control.
For `O=C1NC2CC3CC(C2)CC1C3`, the T/C (endpoint: mean survival time, dose: 12.5 mg/kg/injection, schedule: Q04DX003 (ip), vehicle: alcohol) was 100 % of control, the T/C (endpoint: mean survival time, dose: 25.0 mg/kg/injection, schedule: Q04DX003 (ip), vehicle: alcohol) was 92 % of control and the T/C (endpoint: mean survival time, dose: 50.0 mg/kg/injection, schedule: Q04DX003 (ip), vehicle: alcohol) was 97 % of control.
In the case of `CCCCCCCCCCCC(C)CC(CN)C(=O)OCC` (stereo unspecified), the T/C (endpoint: mean survival time, dose: 100.0 mg/kg/injection, schedule: Q04DX002 (ip), vehicle: saline) is reported as 92 % of control, the T/C (endpoint: mean survival time, dose: 200.0 mg/kg/injection, schedule: Q04DX002 (ip), vehicle: saline) is reported as 100 % of control and the T/C (endpoint: mean survival time, dose: 400.0 mg/kg/injection, schedule: Q04DX002 (ip), vehicle: saline) is reported as 100 % of control.
In the case of `Cc1cc(OC(=O)Nc2cccc(Cl)c2Cl)ccc1Cl`, the T/C [6] is reported as 101 % of control, the T/C [7] is reported as 103 % of control and the T/C [8] is reported as 106 % of control.
In the case of `CCCCOCCOCCOCc1cc2c(cc1CCC)OCO2`, the T/C (endpoint: mean survival time, dose: 50.0 mg/kg/injection, schedule: Q01DX009 (ip), vehicle: Klucel (hydroxypropylcellulose) (HPC)) is reported as 96 % of control, the T/C (endpoint: mean survival time, dose: 100.0 mg/kg/injection, schedule: Q01DX009 (ip), vehicle: Klucel (hydroxypropylcellulose) (HPC)) is reported as 89 % of control and the T/C (endpoint: mean survival time, dose: 200.0 mg/kg/injection, schedule: Q01DX009 (ip), vehicle: Klucel (hydroxypropylcellulose) (HPC)) is reported as 100 % of control.
With `COc1ccc(OC)c(CC(CC(=O)O)C(C)=O)c1` (stereo unspecified) the T/C (endpoint: mean survival time, dose: 12.5 mg/kg/injection, schedule: Q01DX009 (ip), vehicle: water) was 96 % of control, the T/C (endpoint: mean survival time, dose: 25.0 mg/kg/injection, schedule: Q01DX009 (ip), vehicle: water) was 100 % of control and the T/C (endpoint: mean survival time, dose: 50.0 mg/kg/injection, schedule: Q01DX009 (ip), vehicle: water) was 96 % of control. For the same compound, the T/C (endpoint: mean survival time, dose: 100.0 mg/kg/injection, schedule: Q01DX009 (ip), vehicle: water) was 96 % of control and the T/C (endpoint: mean survival time, dose: 200.0 mg/kg/injection, schedule: Q01DX009 (ip), vehicle: water) was 100 % of control.
With `O=[N+]([O-])c1cc([N+](=O)[O-])c2nc3ccccn3c2c1` the T/C [2] was 101 % of control, the T/C [4] was 101 % of control and the T/C [5] was 101 % of control.
For `CCC(C)(O)C(C)N(C)C1CCCCC1` (stereo unspecified), the T/C (endpoint: mean survival time, dose: 100.0 mg/kg/injection, schedule: Q04DX003 (ip), vehicle: saline) was 97 % of control and 100 % of control and the T/C (endpoint: mean survival time, dose: 200.0 mg/kg/injection, schedule: Q04DX003 (ip), vehicle: saline) was 100 % of control and 97 % of control.
